System: hepatic stellate cells (HSCs)
Experiment: Western blot of αSMA and Fibronectin in TGFβ-stimulated hepatic stellate cells
Assay type: cell-based, human
Conditions: TGFβ 48 hours +/- DHX 10 μM
Protocol: FIGS. 10A-10D DHX reverses hepatic stellate cell activation and in vivo hepatic fibrosis. 10a. DRD1 is preferentially expressed in cultured human hepatic stellate cells (HSCs): ACTA2, PDGFRA positive, relative to cultured human hepatocytes (Heps): ALB positive. N=1. 10b. DHX inhibits TGFβ-mediated hepatic stellate cell activation in vitro. HSCs were stimulated with TGFβ for 48 hours+/−DHX (10 μM) prior to total protein isolation and western blot analysis of αSMA and Fibronectin. N=3 (***p<0.001, **p<0.01, *p<0.05 vs. Control+TGFβ). 10c. DHX reverses Bile duct ligation (BDL) mediated fibrosis in vivo measured by trichrome staining, and 10d. hydroxyproline. Sham Control N=5, BDL Control N=7, and BDL DHX N=8 (**p<0.01 vs. BDL Control).
Western Blotting: Cells were plated in EMEM containing 10% FBS overnight. Media was exchanged with EMEM containing 0.1% FBS for 24 hours. Prior to protein isolation cells were treated with the indicated concentration of compounds for the indicated time. Total protein was isolated using RIPA buffer (pH 8.0) containing Pierce Phosphatase Inhibitor (Thermo) and Halt Protease Inhibitor Cocktail (Thermo). Lysate total protein concentration was determined using Pierce BCA Protein Assay Kit (Thermo) and samples were run on a 10% polyacrylamide gel. […] Plates were imaged via a Li-Cor OdysseyXL system with quantification performed via densitometry.

SMILES: Oc1cc2c(cc1O)[C@H]1c3ccccc3CN[C@@H]1CC2 (racemic) [Dihydrexidine, dihydrexidine]
- TGFβ-mediated HSC expression of SMA and FN protein: significant reversal of both
